Assay [1] addresses T1, CXCR4 on the surface of SupT1 cells (Homo sapiens, UniProt P61073).
T1 construct: constitutively express CXCR4 on the cell surface; host or cells: SupT1 cells
The assay is described as follows: Inhibition of binding of anti-CXCR4-PE antibody to CXCR4 on SupT1 cells (flow cytometry). The note with it: for % positive / Mean fluorescence intensity / Median fluorescence intensity: anti-CXCR4-PE. An excerpt: The assay assesses the ability of glycomimetic compounds to inhibit binding of an anti-CXCR4 antibody conjugated to phycoerythrin (“PE”), to CXCR4 on the surface of SupT1 cells. SupT1 cells are a T lymphoblast derived from a lymphoblastic leukemia and constitutively express CXCR4 on the cell surface. The cells are purchased from ATCC (ATCC number CRL-1942). Anti-human CXCR4-phycoerythrin monoclonal antibody (anti-CXCR4-PE) is purchased from R&D Systems (catalog number FAB170P, clone 12G5). The cells are grown in RPMI 1640 medium supplemented with 10% FBS. Approximately 2×10^6 cells are washed three times by centrifuging the cells at 400×g for 10 minutes and the cell pellet is resuspended in PBS plus 0.05% BSA. After the third centrifugation, the cell pellet is resuspended in PBS plus BSA to a concentration of 5×10^5 cells per ml. To block non-specific binding, human […] is added to the cells to a concentration of 1 μg per 10^5 cells. Next, 200 μl (1×10^5 cells) are added to 5 ml polypropylene round-bottom tubes (Falcon 2063 tubes). Compound #1 (Example 1) (lot 31-190) is added to the cells at final concentrations of 0.5, 5, 10, and 50 μM. To achieve a final concentration of 0.5 μM, 2.2 μl of 50 μM Compound #1 plus 19.8 μl of PBS/BSA are added to 200 μl of cells. To achieve a final concentration of 5 μM, 22 μl of 50 μM Compound #1 are added to 200 μl of cells. To achieve a final concentration of 10 μM, 4.4 μl of 500 μM Compound #1 plus 17.6 μl of PBS/BSA are added to 200 μl of cells. To achieve a final concentration of 50 μM, 22 μl of 500 μM Compound #1 are added to 200 μl of cells. Other aliquots of cells are treated with either 1 or 5 μM of the bicyclam CXCR4 antagonist AMD-3100 (Sigma Aldrich, catalog #A5602). To achieve a final concentration of 1 μM AMD-3100, 4.4 μl of 50 μM AMD-3100 plus 17.6 μl of PBS/BSA are added to 200 μl of cells and to achieve a final concentration of 5 μM, 22 μl of 50 μM AMD-3100 are added to 200 μl of cells. In addition, one tube of cells is treated with 1 μg/ml of SDF-1α (R&D Systems catalog #350-NS), the natural ligand of CXCR4. The tubes are placed at 4° C. for 15 minutes. Subsequently, each tube receives 10 μl of anti-CXCR4-PE, except one tube of cells receives 10 μl of mouse IgG 2A isotype control antibody. The tubes are incubated at 4° C. for 45 minutes. The cells are washed twice with PBS plus 0.05% BSA and the final cell pellet is resuspended in 100 μl of PBS/BSA. To fix the samples, 100 μl of 2% formaldehyde (Polysciences, Inc. ultrapure EM grade, catalog number 04018) are added to each tube. Flow cytometry is performed using a Cytomation MoFlo instrument.
(In general: A flow cytometer gives signals particle by particle.)

In the next assay the test system is E-selectin/Ig chimera. As to the kind of experiment: E-selectin competitive binding assay (sLe^a polyacrylamide conjugate). The conditions noted are these: FIGS. 4 and 5. How it is done:
The inhibition assay to screen glycomimetic antagonists of E-selectin is a competitive binding assay, which allows the determination of IC50 values. Briefly, E-selectin/Ig chimera is immobilized by incubation at 37° C. in 96 well microtiter plates for 2 hours. To reduce nonspecific binding, bovine serum albumin is added to each well and incubated at room temperature for 2 hours. The plate is washed and serial dilutions of the test compounds are added to the wells in the presence of conjugates of biotinylated, sLe^a polyacrylamide with streptavidin/horseradishperoxidase and incubated for 2 hours at room temperature. To determine the amount of sLe^a bound to immobilized E-selectin after washing, the peroxidase substrate, 3,3′,5,5′ tetramethylbenzidin (TMB) is added. After 3 minutes, the enzyme reaction is stopped by the addition of H3PO4 and the absorbance of light at a wavelength of 450 nm is determined. The concentration of test compound required to inhibit binding by 50% is determined and reported as the IC50 value for each glycomimetic E-selectin antagonist. In addition to reporting the absolute IC50 value as measured above, relative IC50 values are determined by a ratio of the IC50 measured for the test compound to that of an internal control (reference) stated for each assay.

T1 sequence (P61073 whole entry): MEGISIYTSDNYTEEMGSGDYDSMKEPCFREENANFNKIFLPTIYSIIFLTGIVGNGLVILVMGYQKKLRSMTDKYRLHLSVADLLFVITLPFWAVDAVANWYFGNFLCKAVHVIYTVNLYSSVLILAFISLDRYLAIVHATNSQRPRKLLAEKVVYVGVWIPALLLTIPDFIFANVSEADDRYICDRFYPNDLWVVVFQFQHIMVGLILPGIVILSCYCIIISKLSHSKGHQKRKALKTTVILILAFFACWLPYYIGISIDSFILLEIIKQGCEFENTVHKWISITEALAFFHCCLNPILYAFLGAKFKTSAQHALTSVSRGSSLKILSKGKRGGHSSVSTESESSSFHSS

Turning to `c1cc(CN2CCCNCCNCCCNCC2)ccc1CN1CCCNCCNCCCNCC1` [AMD-3100, reference compound], in assay [1] (1 μM inhibitor), the “% positive” value amounted to 57.57%, the Mean fluorescence intensity turned out to be 15.60 and the Median fluorescence intensity came out at 7.77. In assay [1] (5 μM inhibitor), the “% positive” value amounted to 12.42%, the Mean fluorescence intensity was found to be 9.98 and the Median fluorescence intensity was found to be 3.92.

In the case of `CC1CC(C(=O)NCCNCc2ccc(CN3CCCNCCNCCCNCC3)cc2)CC(OC2OC(CO)C(O)C(O[C@@H](CC3CCCCC3)C(=O)O)C2OC(=O)c2ccccc2)C1OC1OC(C)C(O)C(O)C1O` (stereo partly shown) [Compound #1], in assay [1], the “Inhibition of binding of anti-CXCR4-PE antibody to CXCR4 (in words)” value is “inhibits binding of anti-CXCR4-PE to SupT1 cells in a dose-dependent manner”. The “% positive” value in assay [1] (0.5 μM inhibitor) came to 98.69%; in assay [1] (5 μM inhibitor), 81.48%; in assay [1] (10 μM inhibitor), 42.06%; in assay [1] (50 μM inhibitor), 12.80%. Further, the Mean fluorescence intensity is given as 68.49 in assay [1] (0.5 μM inhibitor), 22.25 in assay [1] (5 μM inhibitor), 14.08 in assay [1] (10 μM inhibitor) and 11.08 in assay [1] (50 μM inhibitor). Besides, the Median fluorescence intensity in assay [1] (0.5 μM inhibitor) is recorded as 54.25; in assay [1] (5 μM inhibitor), 13.34; in assay [1] (10 μM inhibitor), 6.04; in assay [1] (50 μM inhibitor), 3.92. Moreover, the half-inhibitory concentration (IC50) in assay [1] (anti-CXCR4-PE clone 12G5, 4° C.) came out at 8.25 µM. Also, the “E-selectin antagonist activity (in words)” value with E-selectin/Ig chimera was “potent E-selectin antagonist”.

Turning to SDF-1α, in assay [1], the “Inhibition of binding of anti-CXCR4-PE antibody to CXCR4 (in words)” value is “efficiently inhibits binding”. Also, in assay [1] (1 μg/ml inhibitor), the “% positive” value is 12.37%, the Mean fluorescence intensity turned out to be 10.25 and the Median fluorescence intensity is listed as 4.07.

As usually defined, the IC50 is the concentration that inhibits the measured activity by half.

Source of the values: US8410066B2, “Heterobifunctional inhibitors of E-selectins and CXCR4 chemokine receptors” (GlycoMimetics, Inc., priority 2009, dated 2013).
